Legend:
PHA-stimulated T cells = test: T cell activation markers in medium of PHA-stimulated T cells by ELISA; type: cell-based, human; conditions: 5 μM; for level of IFNγ / level of TNFα: medium of T cells following PHA stimulation; for level of IL-2 / level of IL-2 receptors: medium of T cells, 48 h following PHA stimulation
Experimental: Briefly, human peripheral blood mononuclear cells PBMCs were isolated from human buffy coat using Ficoll-Paque. T cells ([…]) were isolated from PBMCs using dynabeads for human CD3+ T cells and subjected to PHA (1 μg/mL) stimulation for 24 h alone or with JP-3-110 (5 μM) and MPA (5 μM) for additional 48 h. The PHA-stimulated proliferation of T cells is characterized by a quick drop in the early stage (24 h) and a following fast-proliferative stage. FIGS. 3B and 3C show charts depicting the levels of IL-2, IL-2 receptor, TNFα and IFNγ in the media of T cells at 48 h following PHA stimulation. IL-2 and IL-2 receptor were transient expressed markers for early stage T cell activation while TNFα and IFNγ were stably expressed markers for later-stage T cell activation. Results are presented as the mean±S.D., n=6.
(§1) PBMCs were isolated using Ficoll Paque. T cells were isolated from PBMCs using Dynabeads for. T cells were stimulated with PHA (1 μg/ml) for 24 h alone or in the presence of TNP (5 μM) or JP-3-110 (5 μM) for additional 4 days. The total number of PBMCs was measured using T4 Automatic Cell Counter (Nexcelom, Lawrence, Mass.). The extent of T cell activation was determined by measuring the level of IL-2, IL-2sRa, TNFα and IFN-γ in the medium using ELISA at indicated time.
Mixed lymphocytes reaction was used to determine the immunosuppressive effects of MPA and JP-3-110. T cells were purified using dynabeads from peripheral blood mononuclear cells (PBMCs), which were initially isolated from human buffy coat (FIG. 8A). […] The levels of IL-2, IL-2sRa, TNFα and IFNγ were detected by ELISA to study the effects of JP-3-110 and MPA on T cell activation. IL-2 and IL-2R typically peaked at the first 48 h after PHA stimulation as markers for the early stage T cell activation, while TNFα and IFNγ were constitutively expressed by PHA-stimulated T cells as later-stage markers for T cell activation. […] However, the results might be due to an overlap between the immunosuppressive pathway and the anti-inflammatory pathway of JP-3-110 and MPA.

human CD3+ T cells = test: Mixed lymphocyte reaction: proliferation of PHA-stimulated T cells; type: cell-based; conditions: PHA 1 μg/mL; 5 μM; in 4 days
Experimental: Briefly, human peripheral blood mononuclear cells PBMCs were isolated from human buffy coat using Ficoll-Paque. […] Results are presented as the mean±S.D., n=6.
as §1
Mixed lymphocytes reaction was used to determine the immunosuppressive effects of MPA and JP-3-110. T cells were purified using dynabeads from peripheral blood mononuclear cells (PBMCs), which were initially isolated from human buffy coat (FIG. 8A). […] The levels of IL-2, IL-2sRa, TNFα and IFNγ were detected by ELISA to study the effects of JP-3-110 and MPA on T cell activation.

NF-κB = NF-κB SEAP reporter gene assay in INS-1E cells; type: cell-based, rat; conditions: for NF-κB activities in INS-1E cells: printed "at 504" (FIG. 2B: 5 μM), cytokine cocktail 10 ng/mL TNFα, 5 ng/mL IL-1β, 10 ng/mL IFN-γ, 24 hours
Experimental: Briefly, a plasmid construct containing NF-kB promoter and SEAP gene was transferred into INS-1E cells by lipofectamine. SEAP was then expressed and secreted into culture supernatant and allowed […] detection using a substrate PNPP under 405 nm. […] NF-kB activity was measured 24 hours after addition of cytokine cocktail (10 ng/mL TNFα, 5 ng/mL IL-1β and 10 ng/mL IFN-γ) alone or with JP-3-110 (5 μM) or TNP (5 μM) or MPA (5 μM). Blank, no cytokine stimulation. Cyt, cytokine cocktail. Results are presented as the mean±S.D., n=3.
INS-1E cells which were stably transfected with the SEAP gene containing the response-element for NF-κB were used to screen for anti-inflammatory activity. Briefly, 10^6 cells/well were seeded overnight followed by treatment with 10 ng/mL human recombinant TNFα and either TNP or hybrid drug JP-3-110 (1 μM). SEAP activity was measured 18 h later in supernatant samples (50 µL) using the NF-κB SEAPorter™ Assay Kit (IMGENEX, San Diego, Calif.) and a microplate luminometer. SEAP activity was normalized to the total protein content.

INS-1E cells [1] = test: Caspase 3 activity in INS-1E cells (Caspase-Glo 3); type: cell-based; conditions: 20 μM (each), 2 days
Experimental: (§2) Results are presented as the mean±S.D., n=3. […] Apoptotic cells were stained in dark (arrows). […] Islet was collected and dispersed with 0.25% Trypsin/EDTA into single cell suspension. P3 indicated the percentage of apoptotic cells. All experiments were performed in triplicates. Results are presented as the mean±SD. *p<0.05 as determined by an unpaired Student's t-test, n=6.
A cytokine cocktail (5 ng/ml TNFα and 5 ng/ml IL-1β) was used to mimic the in vivo challenge to the INS-1E cells and human islets by the inflammatory cytokines. Caspase-Glo 3 assay kits were used to analyze caspase 3 as per the manufacturer's protocol (Promega, Madison, Wis.). This assay kit provides a proilluminescent caspase substrate, DEVD, that, when cleaved by caspases, will release luciferin to quantitatively determine caspase concentration. […] The contents were then transferred into culture tubes, and luminescence was determined using a luminometer (Berthold, Germany).
We then determined the conjugation with TNP can reduce the pro-apoptotic effect of MPA. […] We first measured the caspase 3 activities of insulin-producing INS-1E cells under the stimulation of MPA alone, or MPA with free TNP, or JP-3-110 (MPA conjugated with TNP). […]

INS-1E cells [2] = test: TUNEL assay of INS-1E cells; type: cell-based; conditions: 20 μM
Experimental: as §2
The apoptosis of INS-1E cells was analyzed using terminal deoxynucleotidyl transferase dUTP nick end labeling (TUNEL). Briefly, following JP-3-110 treatment for 48 h and cytokine cocktail treatment for additional 48 h, INS-1E cells were characterized by the DeadEnd™ Colorimetric TUNEL system (Promega, Madison, Wis., USA), in which fragmented DNA from apoptotic cells was labeled with biotinylated nucleotide and detected using hydrogen peroxide and diaminobenzidine. For human islets, following treatment with JP-3-110 and cytokines, human islets were digested with 0.25% trypsin/EDTA into a single-cell suspension, stained with the Annexin V-FITC Apoptosis Detection Kit (Abcam, Cambridge, Mass.) and analyzed with flow cytometry. Annexin V binds to phosphatidylserine on the cell surface, which is a feature found in apoptotic cells. Fluorescent intensity was analyzed using CellQuest software (BD Bioscience, Franklin Lakes, N.J.). […]
We then determined the conjugation with TNP can reduce the pro-apoptotic effect of MPA. […]

CCCCNC(=O)[C@]1(O)C[C@@H](O)[C@@H](O)[C@H](OC(=O)CC/C(C)=C/Cc2c(OC)c(C)c3c(c2OC(C)=O)C(=O)OC3)C1 [JP-3-110, (1R,2R,3R,5S)-5-(butylcarbamoyl)-2,3,5-trihydroxycyclohexyl (E)-6-(4-acetoxy-6-methoxy-7-methyl-3-oxo-1,3-dihydroisobenzofuran-5-yl)-4-methylhex-4-enoate]
level of IFNγ (PHA-stimulated T cells): moderate inhibition | level of TNFα (PHA-stimulated T cells): moderate inhibition | level of IL-2 (PHA-stimulated T cells): did not have any effect | level of IL-2 receptors (PHA-stimulated T cells): did not have any effect | proliferation of T cells (human CD3+ T cells): equally potent as MPA | reduction in NF-κB activities compared among the three groups (NF-κB; MPA, TNP and JP-3-110 compared, cytokine cocktail): most reduction | NF-κB activities in INS-1E cells (NF-κB): significantly reduced | caspase 3 activity (INS-1E cells [1]): effectively reversed the elevation of caspase 3 activity | apoptotic cell death (TUNEL) (INS-1E cells [2]): effectively reversed

COc1c(C)c2c(c(O)c1C/C=C(\C)CCC(=O)O)C(=O)OC2 [MPA, mycophenolic acid, reference compound]
level of IFNγ (PHA-stimulated T cells): moderate inhibition | level of TNFα (PHA-stimulated T cells): moderate inhibition | level of IL-2 (PHA-stimulated T cells): did not have any effect | level of IL-2 receptors (PHA-stimulated T cells): did not have any effect | proliferation of T cells (human CD3+ T cells): suppress the proliferation of T cells | NF-κB activities in INS-1E cells (NF-κB): significantly reduced | caspase 3 activity (INS-1E cells [1]): elevation of caspase 3 activity | apoptotic cell death (TUNEL) (INS-1E cells [2]): apoptotic cell death
